We go through 23 compounds from patent US11046680B1, “Heteroaryl-substituted triazoles as APJ receptor agonists” (priority 2016, dated 2021).

For this assay, the target named is human APJ receptor (Homo sapiens (Human), UniProt P35414). As to the kind of experiment: biochemical. Format: biochemical. Conditions: [35S]GTPγS binding, CHO membranes expressing human APJ receptor; read-out: Activity hAPJ SPA EC50 IP. A digest of the protocol: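 Membranes of a stable CHO line carrying human APJ (pFLAG-CMV-3) were used in a GTPγS binding format; buffer GDP, MgCl2 and NaCl were optimized, and plates were read after 90 min at RT.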
human APJ receptor, sequence (P35414 whole entry): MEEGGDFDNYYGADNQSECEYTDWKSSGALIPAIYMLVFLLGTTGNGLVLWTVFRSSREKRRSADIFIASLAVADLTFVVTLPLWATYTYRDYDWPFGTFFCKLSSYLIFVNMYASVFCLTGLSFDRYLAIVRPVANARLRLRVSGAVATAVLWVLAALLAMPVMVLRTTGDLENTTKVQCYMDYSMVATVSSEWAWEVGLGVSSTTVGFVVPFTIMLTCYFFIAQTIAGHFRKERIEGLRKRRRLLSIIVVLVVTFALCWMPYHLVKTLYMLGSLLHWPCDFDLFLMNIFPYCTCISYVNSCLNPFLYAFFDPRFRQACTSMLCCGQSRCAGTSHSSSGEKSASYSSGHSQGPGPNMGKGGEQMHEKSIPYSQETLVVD
(In general: Binding of GTPγS marks nucleotide exchange on a G protein.)
With `COc1cnc([C@@H](C)[C@H](C)S(=O)(=O)Nc2nnc(-c3ccn(C)n3)n2-c2c(OC)cccc2OC)cn1` [Example 287.0, (2S,3R)-N-(4-(2,6-dimethoxyphenyl)-5-(1-methyl-1H-pyrazol-3-yl)-4H-1,2,4-triazol-3-yl)-3-(5-methoxy-2-pyrazinyl)-2-butanesulfonamide], the EC50 amounted to 0.42 nM. The value for `COc1cccc(OC)c1-n1c(NS(=O)(=O)[C@@H](C)[C@H](OC)c2ncc(C)cn2)nnc1-c1cnccn1` [Example 337.0, (1R,2S)-N-(4-(2,6-dimethoxyphenyl)-5-(2-pyrazinyl)-4H-1,2,4-triazol-3-yl)-1-methoxy-1-(5-methyl-2-pyrimidinyl)-2-propanesulfonamide] was 6.8 nM; that for `COc1cccc(OC)c1-n1c(NS(=O)(=O)[C@H](C)[C@@H](C)c2ncc(Cl)cn2)nnc1-c1ccn(C)n1` [Example 443.0, (2R,3S)-3-(5-chloropyrimidin-2-yl)-N-(4-(2,6-dimethoxyphenyl)-5-(1-methyl-1H-pyrazol-3-yl)-4H-1,2,4-triazol-3-yl)butane-2-sulfonamide] was 6.4 nM; that for `COc1cccc(OC)c1-n1c(NS(=O)(=O)[C@H](C)[C@H](O)c2ncc(C)cn2)nnc1-c1nc(C)cs1` (single isomer, unassigned) [Example 314.0, (1R,2R)-N-(4-(2,6-dimethoxyphenyl)-5-(4-methylthiazol-2-yl)-4H-1,2,4-triazol-3-yl)-1-hydroxy-1-(5-methylpyrimidin-2-yl)propane-2-sulfonamide or (1S,2S)-N-(4-(2,6-dimethoxyphenyl)-5-(4-methylthiazol-2-yl)-4H-1,2,4-triazol-3-yl)-1-hydroxy-1-(5-methylpyrimidin-2-yl)propane-2-sulfonamide] was 14 nM. Take `COc1cccc(OC)c1-n1c(NS(=O)(=O)[C@H](C)Cc2ncc(F)cn2)nnc1-c1nc(C)cs1` (single isomer, unassigned) [Example 101.0, (R)-N-(4-(2,6-Dimethoxyphenyl)-5-(4-methylthiazol-2-yl)-4H-1,2,4-triazol-3-yl)-1-(5-fluoropyrimidin-2-yl)propane-2-sulfonamide or (S)-N-(4-(2,6-dimethoxyphenyl)-5-(4-methylthiazol-2-yl)-4H-1,2,4-triazol-3-yl)-1-(5-fluoropyrimidin-2-yl)propane-2-sulfonamide]: the EC50 is 0.7 nM. `COc1ccccc1-n1c(NS(=O)(=O)CCC(F)(F)F)nnc1-c1cccs1` [Example 386.0, 3,3,3-Trifluoro-N-(4-(2-methoxyphenyl)-5-(2-thiophenyl)-4H-1,2,4-triazol-3-yl)-1-propanesulfonamide]: the EC50 is > 12500 nM. The value for `COc1ncnc(OC)c1-n1c(NS(=O)(=O)[C@@H](C)[C@H](C)c2ncc(C)cn2)nnc1-c1nc(C)cs1` [Example 3.0, (2S,3R)-N-(4-(4,6-dimethoxypyrimidin-5-yl)-5-(4-methylthiazol-2-yl)-4H-1,2,4-triazol-3-yl)-3-(5-methylpyrimidin-2-yl)butane-2-sulfonamide] was 2.6 nM. As for `COCC(COC)n1c(NS(=O)(=O)[C@@H](C)[C@H](C)c2cnc(OC)cn2)nnc1-c1ccn(C)n1` [Example 453.0, (2S,3R)-N-(4-(1,3-dimethoxy-2-propanyl)-5-(1-methyl-1H-pyrazol-3-yl)-4H-1,2,4-triazol-3-yl)-3-(5-methoxy-2-pyrazinyl)-2-butanesulfonamide], the EC50 is 73 nM.

`COc1cccc(OC)c1-n1c(NS(=O)(=O)[C@@H](C)[C@H](OC)c2ncc(C)cn2)nnc1-c1cnn2c1CCC2` [Example 444.0, (1R,2S)-N-(5-(5,6-dihydro-4H-pyrrolo[1,2-b]pyrazol-3-yl)-4-(2,6-dimethoxyphenyl)-4H-1,2,4-triazol-3-yl)-1-methoxy-1-(5-methylpyrimidin-2-yl)propane-2-sulfonamide]: the EC50 turned out to be 1.2 nM. Under `CCS(=O)(=O)Nc1nnc(-c2cc([C@@H](O)c3ccc(Cl)cc3S(C)(=O)=O)n(C)n2)n1-c1c(OC)cccc1OC` [Example 382.0, N-(5-(5-((R)-(4-Chloro-2-(methylsulfonyl)phenyl)(hydroxy)methyl)-1-methyl-1H-pyrazol-3-yl)-4-(2,6-dimethoxyphenyl)-4H-1,2,4-triazol-3-yl)ethanesulfonamide and N-(5-(5-((S)-(4-chloro-2-(methylsulfonyl)phenyl)(hydroxy)methyl)-1-methyl-H-pyrazol-3-yl)-4-(2,6-dimethoxyphenyl)-4H-1,2,4-triazol-3-yl)ethanesulfonamide] stands 260 nM; under `COc1cccc(OC)c1-n1c(NS(=O)(=O)C[C@H](OC)c2ccc(Cl)cc2S(C)(=O)=O)nnc1-c1ccn(C)n1` (single isomer, unassigned) [Example 381.0, (R)-2-(4-Chloro-2-(methylsulfonyl)phenyl)-N-(4-(2,6-dimethoxyphenyl)-5-(1-methyl-1H-pyrazol-3-yl)-4H-1,2,4-triazol-3-yl)-2-methoxyethanesulfonamide or (S)-2-(4-chloro-2-(methylsulfonyl)phenyl)-N-(4-(2,6-dimethoxyphenyl)-5-(1-methyl-1H-pyrazol-3-yl)-4H-1,2,4-triazol-3-yl)-2-methoxyethanesulfonamide], 0.29 nM. Under `COc1cccc(OC)c1-n1c(NS(=O)(=O)[C@@H](C)[C@H](C)c2ncc(F)cn2)nnc1-c1cnn2c1CCC2` [Example 479.0, (2S,3R)-N-(5-(5,6-dihydro-4H-pyrrolo[1,2-b]pyrazol-3-yl)-4-(2,6-dimethoxyphenyl)-4H-1,2,4-triazol-3-yl)-3-(5-fluoropyrimidin-2-yl)butane-2-sulfonamide] stands 0.56 nM; under `COc1cccc(OC)c1-n1c(NS(=O)(=O)[C@@H](C)[C@@H](C)c2ncc(F)cn2)nnc1-c1nc(C)cs1` (single isomer, unassigned) [Example 119.0], 4.6 nM. The value for `COc1cccc(OC)c1-n1c(NS(=O)(=O)CCc2ncc(F)cn2)nnc1-c1nc(C)cs1` [Example 94.0, N-(4-(2,6-dimethoxyphenyl)-5-(4-methylthiazol-2-yl)-4H-1,2,4-triazol-3-yl)-2-(5-fluoropyrimidin-2-yl)ethanesulfonamide] was 2.7 nM. For the compound `COc1ccc(S(C)(=O)=O)cc1-n1c(NS(=O)(=O)CCc2ccc(F)cc2)nnc1-c1cccs1` [Example 358.0, 2-(4-Fluorophenyl)-N-(4-(2-methoxy-5-(methylsulfonyl)phenyl)-5-(thiophen-2-yl)-4H-1,2,4-triazol-3-yl)ethanesulfonamide], the concentration giving a half-maximal response (EC50) is 34 nM.

Regarding `COc1nccc(-c2nnc(NS(=O)(=O)[C@@H](C)[C@H](C)c3ncc(F)cn3)n2-c2c(OC)cccc2OC)n1` [Example 197.0, (2S,3R)-N-(4-(2,6-dimethoxyphenyl)-5-(2-methoxy-4-pyrimidinyl)-4H-1,2,4-triazol-3-yl)-3-(5-fluoro-2-pyrimidinyl)-2-butanesulfonamide], the EC50 came to 2.4 nM. The value for `COc1cccc(OC)c1-n1c(NS(=O)(=O)[C@@H](C)[C@H](OC)c2ncc(C)cn2)nnc1-c1n[nH]c2ccccc12` [Example 411.0] was 58 nM; that for `COc1cccc(OC)c1-n1c(NS(=O)(=O)[C@@H](C)[C@H](OC)c2ncc(C)cn2)nnc1-c1noc2ccc(Br)cc12` [Example 414.0] was 210 nM; that for `COc1cccc(OC)c1-n1c(NS(=O)(=O)[C@@H]2C[C@H](O)CN(c3ncc(F)cn3)C2)nnc1-c1nc(C)cs1` (single isomer, unassigned) [Example 254.0, (3R,5S)-N-(4-(2,6-dimethoxyphenyl)-5-(4-methyl-1,3-thiazol-2-yl)-4H-1,2,4-triazol-3-yl)-1-(5-fluoro-2-pyrimidinyl)-5-hydroxy-3-piperidinesulfonamide or (3S,5R)-N-(4-(2,6-dimethoxyphenyl)-5-(4-methyl-1,3-thiazol-2-yl)-4H-1,2,4-triazol-3-yl)-1-(5-fluoro-2-pyrimidinyl)-5-hydroxy-3-piperidinesulfonamide] was 1.2 nM.

For the compound `COc1cccc(OC)c1-n1c(NS(=O)(=O)[C@H](C)Cc2ncc(F)cn2)nnc1-c1ccn(C)c1` (single isomer, unassigned) [Example 34.0, (R)-N-(4-(2,6-dimethoxyphenyl)-5-(1-methyl-1H-pyrrol-3-yl)-4H-1,2,4-triazol-3-yl)-1-(5-fluoropyrimidin-2-yl)propane-2-sulfonamide or (S)-N-(4-(2,6-dimethoxyphenyl)-5-(1-methyl-1H-pyrrol-3-yl)-4H-1,2,4-triazol-3-yl)-1-(5-fluoropyrimidin-2-yl)propane-2-sulfonamide], the concentration for a half-maximal effect (EC50) turned out to be 4.5 nM. For `CC(C)O[C@@H](c1ncc(Cl)cn1)[C@H](C)S(=O)(=O)Nc1nnc(-c2ccn(C)n2)n1C1(C)CC1` [Example 538.0, (1S,2S)-1-(5-chloro-2-pyrimidinyl)-N-(4-(1-methylcyclopropyl)-5-(1-methyl-1H-pyrazol-3-yl)-4H-1,2,4-triazol-3-yl)-1-(2-propanyloxy)-2-propanesulfonamide], the EC50 was 20 nM.

With `Cn1ccc(-c2nnc(NS(=O)(=O)[C@@H]3C[C@@H](O)CN(c4ncc(F)cn4)C3)n2-c2c(F)cccc2F)n1` (single isomer, unassigned) [Example 300.0, (3R,5R)-N-(4-(2,6-difluorophenyl)-5-(1-methyl-1H-pyrazol-3-yl)-4H-1,2,4-triazol-3-yl)-1-(5-fluoro-2-pyrimidinyl)-5-hydroxy-3-piperidinesulfonamide or (3S,5R)-N-(4-(2,6-difluorophenyl)-5-(1-methyl-1H-pyrazol-3-yl)-4H-1,2,4-triazol-3-yl)-1-(5-fluoro-2-pyrimidinyl)-5-hydroxy-3-piperidinesulfonamide], the concentration giving a half-maximal response (EC50) amounted to 55 nM. The value for `COc1ncnc(OC)c1-n1c(NS(=O)(=O)[C@@H](C)[C@H](OC)c2ncc(Cl)cn2)nnc1-c1noc2ccccc12` [Example 420.0, (1R,2S)-N-(5-(benzo[d]isoxazol-3-yl)-4-(4,6-dimethoxypyrimidin-5-yl)-4H-1,2,4-triazol-3-yl)-1-(5-chloropyrimidin-2-yl)-1-methoxypropane-2-sulfonamide] was 27 nM.

By EC50 is commonly meant the concentration at which the effect is half-maximal.
